In ChEMBL document CHEMBL3244355, “Quinolone antimicrobial agents. 2. Methylenedioxy positional isomers of oxolinic acid” (1979):
In brackets after ≈: the same amount, converted by molar mass.

Experiments:
[1] = tested on: Shigella sonnei; assay: Antimicrobial activity against Shigella sonnei ATCC 9290 assessed as growth inhibition by agar dilution-streak method; assay type: functional
[2] = tested on: Proteus mirabilis; assay: Antimicrobial activity against Proteus mirabilis Finland 9 assessed as growth inhibition by agar dilution-streak method; assay type: functional
[3] = tested on: Serratia marcescens; assay: Antimicrobial activity against Serratia marcescens ATCC 4003 assessed as growth inhibition by agar dilution-streak method; assay type: functional
[4] = tested on: Proteus vulgaris; assay: Antimicrobial activity against Proteus vulgaris ATCC 6897 assessed as growth inhibition by agar dilution-streak method; assay type: functional
[5] = tested on: Acinetobacter sp.; assay: Antimicrobial activity against Acinetobacter sp. 2347 assessed as growth inhibition by agar dilution-streak method; assay type: functional
[6] = tested on: Enterococcus faecalis; assay: Antimicrobial activity against Streptococcus faecalis ATCC 8043 assessed as growth inhibition by agar dilution-streak method; assay type: functional
[7] = tested on: Salmonella typhi; assay: Antimicrobial activity against Salmonella typhi ATCC 9992 assessed as growth inhibition by agar dilution-streak method; assay type: functional, Salmonella enterica subsp. enterica serovar Typhi; details: Salmonella enterica
[8] = tested on: Klebsiella pneumoniae; assay: Antimicrobial activity against Klebsiella pneumoniae ATCC 8045 assessed as growth inhibition by agar dilution-streak method; assay type: functional
[9] = tested on: Escherichia coli; assay: Antimicrobial activity against Escherichia coli ATCC 26 assessed as growth inhibition by agar dilution-streak method; assay type: functional
[10] = tested on: Pseudomonas aeruginosa; assay: Antimicrobial activity against Pseudomonas aeruginosa BMH 1 assessed as growth inhibition by agar dilution-streak method; assay type: functional
[11] = tested on: Staphylococcus aureus; assay: Antimicrobial activity against Staphylococcus aureus ATCC 6538P assessed as growth inhibition by agar dilution-streak method; assay type: functional

| Structure (SMILES) | MIC [1] [µg/mL] | MIC [2] [µg/mL] | MIC [3] [µg/mL] | MIC [4] [µg/mL] | MIC [5] [µg/mL] | MIC [6] [µg/mL] | MIC [7] [µg/mL] | MIC [8] [µg/mL] | MIC [9] [µg/mL] | MIC [10] [µg/mL] | MIC [11] [µg/mL] |
| --- | --- | --- | --- | --- | --- | --- | --- | --- | --- | --- | --- |
| CCn1cc(C(=O)O)c(=O)c2c3c(ccc21)OCO3 | > 100 | > 100 | > 100 | 100 (≈ 383 µM) | > 100 | > 100 | > 100 | 25 (≈ 95.7 µM) | > 100 | > 100 | > 100 |
| CCn1cc(C(=O)O)c(=O)c2ccc3c(c21)OCO3 | 3.13 (≈ 12 µM) | 50 (≈ 191 µM) | 3.13 (≈ 12 µM) | 3.13 (≈ 12 µM) | 6.25 (≈ 23.9 µM) | > 100 | 12.5 (≈ 47.9 µM) | 1.56 (≈ 5.97 µM) | 6.25 (≈ 23.9 µM) | > 100 | 25 (≈ 95.7 µM) |
| CCn1cc(C(=O)O)c(=O)c2cc3c(cc21)OCO3 [OXOLINIC ACID] | 0.2 (≈ 0.766 µM) | 0.78 (≈ 2.99 µM) | 0.1 (≈ 0.383 µM) | > 0.05 | 0.4 (≈ 1.53 µM) | 25 (≈ 95.7 µM) | 0.2 (≈ 0.766 µM) | > 0.05 | 0.1 (≈ 0.383 µM) | 12.5 (≈ 47.9 µM) | 0.78 (≈ 2.99 µM) |
